Laboratory results from ChEMBL document CHEMBL1201862, “PubChem BioAssay data set” (2004).
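These data come from cells grown in 96-well plates and exposed to compound for 48 hours at five concentrations. Abbreviation: GI50, concentration required for 50% inhibition of growth.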 Activity calls are given as the source filed them. Rule as the data show it: active = GI50 up to about 1.1 µM and inactive = higher.

Legend:
Assay in all cases: inhibition of tumour cell growth, NCI panel, 48 h
NCI-H522 = test system: NCI-H522
OVCAR-3 = test system: OVCAR-3
786-0 = test system: 786-0
HT-29 = test system: HT-29
HOP-62 = test system: HOP-62
KM12 = test system: KM12
OVCAR-5 = test system: OVCAR-5
SNB-75 = test system: SNB-75
NCI-H460 = test system: NCI-H460
SN12C = test system: SN12C
HCC 2998 = test system: HCC 2998
OVCAR-8 = test system: OVCAR-8
COLO 205 = test system: COLO 205
SW-620 = test system: SW-620
EKVX = test system: EKVX
CCRF-CEM = test system: CCRF-CEM

SMILES	GI50 (NCI-H522)	GI50 (OVCAR-3)	GI50 (786-0)	GI50 (HT-29)	GI50 (HOP-62)	GI50 (KM12)	GI50 (OVCAR-5)	GI50 (SNB-75)	GI50 (NCI-H460)	GI50 (SN12C)	GI50 (HCC 2998)	GI50 (OVCAR-8)	GI50 (COLO 205)	GI50 (SW-620)	GI50 (EKVX)	GI50 (CCRF-CEM)
C#CCNC(=O)NC(CCCNC(=O)OCc1ccccc1)C(=O)OCc1ccccc1 (stereo not given)	25.9 µM (inactive)	> 100 µM (inactive)	> 100 µM (inactive)	> 100 µM (inactive)	> 100 µM (inactive)	> 100 µM (inactive)	> 100 µM (inactive)	82.4 µM (inactive)	46.2 µM (inactive)	> 100 µM (inactive)	> 100 µM (inactive)	> 100 µM (inactive)	35.7 µM (inactive)	> 100 µM (inactive)	> 100 µM (inactive)	> 100 µM (inactive)
COc1ccc(C2=NOP(c3ccccc3)(c3ccccc3)(c3ccccc3)C2)cc1	7.91 µM (inactive)	21.7 µM (inactive)	21.2 µM (inactive)	1.55 µM (inactive)	20.8 µM (inactive)	34.1 µM (inactive)	4.45 µM (inactive)	33 µM (inactive)	9.31 µM (inactive)	29.6 µM (inactive)	20.9 µM (inactive)	14.8 µM (inactive)	9.64 µM (inactive)	16.2 µM (inactive)	63.1 µM (inactive)	7.98 µM (inactive)
NC(=O)CN(CC(N)=O)C(N)=O	> 100 µM (inactive)	> 100 µM (inactive)	> 100 µM (inactive)	> 100 µM (inactive)		> 100 µM (inactive)	> 100 µM (inactive)	23 µM (inactive)	> 100 µM (inactive)			> 100 µM (inactive)	> 100 µM (inactive)	> 100 µM (inactive)	> 100 µM (inactive)	> 100 µM (inactive)
COc1cc(Br)c(C2OCCCO2)cc1OCc1ccccc1	66.1 µM (inactive)	47.2 µM (inactive)	> 100 µM (inactive)	> 100 µM (inactive)	> 100 µM (inactive)	> 100 µM (inactive)	> 100 µM (inactive)	> 100 µM (inactive)	55.7 µM (inactive)	> 100 µM (inactive)		> 100 µM (inactive)	> 100 µM (inactive)	> 100 µM (inactive)	> 100 µM (inactive)	94.2 µM (inactive)
CC(=O)O[C@H]1CCC2[C@@H]3CCC4Nc5c(cnn5-c5ccccc5)C[C@]4(C)C3CC[C@@]21C (stereo not given in full)	14.7 µM (inactive)	6.92 µM (inactive)	8.49 µM (inactive)	8.24 µM (inactive)	18.3 µM (inactive)	17.7 µM (inactive)	17.4 µM (inactive)	4.01 µM (inactive)	15.8 µM (inactive)	19.1 µM (inactive)	9.55 µM (inactive)	18.2 µM (inactive)	14.5 µM (inactive)	11.9 µM (inactive)	3.3 µM (inactive)	7.08 µM (inactive)
CCc1ccccc1-n1c2nc(=O)n(C)c(=O)c-2nc2ccccc21	13.6 µM (inactive)	2.49 µM (inactive)	7.21 µM (inactive)	3.63 µM (inactive)	29.6 µM (inactive)	10.8 µM (inactive)	20 µM (inactive)	14.2 µM (inactive)	4.55 µM (inactive)	13.5 µM (inactive)	11.1 µM (inactive)	5.96 µM (inactive)	2.77 µM (inactive)	13.8 µM (inactive)	12.1 µM (inactive)	11.2 µM (inactive)
CCCN(CCCCC(NC(C)=O)C(=O)NCc1ccccc1)C(=O)NCCCl (stereo not given)	> 100 µM (inactive)	> 100 µM (inactive)	> 100 µM (inactive)	> 100 µM (inactive)	> 100 µM (inactive)	> 100 µM (inactive)		> 100 µM (inactive)	> 100 µM (inactive)	> 100 µM (inactive)	> 100 µM (inactive)	> 100 µM (inactive)	> 100 µM (inactive)	> 100 µM (inactive)	> 100 µM (inactive)	> 100 µM (inactive)
COc1ccc(C(C#N)NNc2nc(C)cc(O)n2)cc1OC (stereo not given)	> 100 µM (inactive)	> 100 µM (inactive)	> 100 µM (inactive)	> 100 µM (inactive)	> 100 µM (inactive)	> 100 µM (inactive)	> 100 µM (inactive)	71.9 µM (inactive)	> 100 µM (inactive)	> 100 µM (inactive)		> 100 µM (inactive)	> 100 µM (inactive)	> 100 µM (inactive)		> 100 µM (inactive)
COc1ccc2c(c1)C(CCN)C(=O)N2 (stereo not given)		> 100 µM (inactive)	> 100 µM (inactive)	> 100 µM (inactive)	> 100 µM (inactive)	> 100 µM (inactive)	> 100 µM (inactive)	> 100 µM (inactive)	> 100 µM (inactive)		> 100 µM (inactive)	> 100 µM (inactive)	> 100 µM (inactive)	> 100 µM (inactive)	> 100 µM (inactive)	> 100 µM (inactive)
O=C(c1ccco1)N(C(=S)N1CCN(c2ccccn2)CC1)C1CCCCC1	> 100 µM (inactive)	> 100 µM (inactive)	> 100 µM (inactive)	> 100 µM (inactive)	> 100 µM (inactive)	> 100 µM (inactive)	> 100 µM (inactive)	> 100 µM (inactive)	> 100 µM (inactive)	> 100 µM (inactive)		> 100 µM (inactive)	> 100 µM (inactive)	> 100 µM (inactive)		> 100 µM (inactive)
COc1ccc(/C=C/C(=O)c2sc(NC(=S)NC(=O)c3ccc(Cl)cc3)nc2C)cc1OC	> 10 µM (inactive)	38.4 µM (inactive)	83.8 µM (inactive)	88.1 µM (inactive)	47.5 µM (inactive)	59.2 µM (inactive)	> 100 µM (inactive)		84.7 µM (inactive)	36.6 µM (inactive)	> 100 µM (inactive)	43.9 µM (inactive)	37.2 µM (inactive)	55.7 µM (inactive)	66.8 µM (inactive)	26.2 µM (inactive)
CC1CCC2(C)C(CC=C(C=O)C2(O)C=O)C12CO2 (stereo not given)	2.31 µM (inactive)	0.481 µM (active)	2.4 µM (inactive)	2.55 µM (inactive)	20.9 µM (inactive)	3.21 µM (inactive)	2.73 µM (inactive)		2.57 µM (inactive)	2.6 µM (inactive)	2.29 µM (inactive)	2.22 µM (inactive)	1.33 µM (inactive)	2.36 µM (inactive)	6.98 µM (inactive)	1.26 µM (inactive)
COc1cc2cc3c4c(cc(OC)c(OC)c4c2cc1OC)CCN3C(=O)CCC(=O)NCCCN(C)C	21.8 µM (inactive)	> 100 µM (inactive)	78 µM (inactive)	22.6 µM (inactive)	50.7 µM (inactive)	67.1 µM (inactive)		10.3 µM (inactive)	33.1 µM (inactive)	> 100 µM (inactive)	> 100 µM (inactive)	> 100 µM (inactive)	32.6 µM (inactive)	54 µM (inactive)	72.1 µM (inactive)	29.2 µM (inactive)
O=C1c2ccncc2C(=O)c2c(O)ccc(O)c21		1.95 µM (inactive)	6.38 µM (inactive)	3.07 µM (inactive)	32.2 µM (inactive)	6.07 µM (inactive)	16 µM (inactive)	23.6 µM (inactive)	11.4 µM (inactive)	4.73 µM (inactive)	4.92 µM (inactive)	9.64 µM (inactive)	3.72 µM (inactive)	2.89 µM (inactive)	18 µM (inactive)	4.33 µM (inactive)
CC(=O)N1c2ccccc2C2=CC3C4C(=O)N(c5ccccc5)C(=O)C4C21C1C(=O)N(c2ccccc2)C(=O)C31 (stereo not given)			37.2 µM (inactive)	36.9 µM (inactive)		35.6 µM (inactive)	55.1 µM (inactive)	31.1 µM (inactive)	16.8 µM (inactive)	42.7 µM (inactive)	20.7 µM (inactive)	23.1 µM (inactive)	59.7 µM (inactive)	31.2 µM (inactive)		16.2 µM (inactive)
CN(Cc1ccccc1)c1nc(=[N+](C)C)ss1	41.1 µM (inactive)		> 100 µM (inactive)	74.8 µM (inactive)	> 100 µM (inactive)	9.42 µM (inactive)	> 100 µM (inactive)	> 100 µM (inactive)	16.9 µM (inactive)	65 µM (inactive)	> 100 µM (inactive)	> 100 µM (inactive)		> 100 µM (inactive)	> 100 µM (inactive)	3.55 µM (inactive)
COc1cc(CNC2c3cc4c(cc3C(c3cc(OC)c(OC)c(OC)c3)[C@H]3C(=O)OCC23)OCO4)cc(OC)c1OC (stereo not given in full)	0.0661 µM (active)	0.627 µM (active)	0.428 µM (active)	0.335 µM (active)	0.231 µM (active)	0.177 µM (active)	> 100 µM (inactive)	0.535 µM (active)	0.29 µM (active)	0.376 µM (active)	0.305 µM (active)	0.247 µM (active)	0.18 µM (active)	0.416 µM (active)		0.35 µM (active)
Nc1c(-c2ccccc2-c2c(N)[n+]([O-])c3ccccc3[n+]2[O-])[n+]([O-])c2ccccc2[n+]1[O-]	2.06 µM (inactive)	7.45 µM (inactive)	12 µM (inactive)	6.9 µM (inactive)		8.32 µM (inactive)	64.6 µM (inactive)	22.2 µM (inactive)	2.51 µM (inactive)	6.17 µM (inactive)	22 µM (inactive)	3.7 µM (inactive)	4.69 µM (inactive)	8.45 µM (inactive)	5.37 µM (inactive)	2.49 µM (inactive)
